Reference: patent US20180117171A1, “IMMUNOCONJUGATES FOR PROGRAMMING OR REPROGRAMMING OF CELLS” (President and Fellows of Harvard College, priority 2015, published 2018)

Legend:
Jaws II cells = assay: transwell migration of Jaws II DC; format: cell-based; details: 10^−6 or 10^−7 M dexamethasone
BMDC [1] = assay: IL-12p70 elaboration from BMDC (ELISA); details: 100 nM, LPS 50 ng/ml
[2] = system: primary bone marrow dendritic cells (BMDC); assay: dexamethasone effect on surface markers of bone marrow dendritic cells (FACS); format: cell-based, mouse
Procedure: Flow cytometry was conducted according to standard protocols. Cells were harvested, washed, and resuspended to a final cell concentration of 1-5 million cells/ml in ice cold phosphate buffered saline (PBS) with 10% fetal bovine serum (FBS) and 1% sodium azide. Anti-mouse antibodies including anti-CD11c, MHC II, CD80, CD86, and OVA 257-264 bound to H-2Kb were then aliquotted according to the manufacturer's recommended dilutions (Ebioscience). During staining, cells were incubated for 20 minutes at room temperature and then 20 minutes on ice. The cells were then washed and kept on ice until analysis. Some samples were fixed in 1% paraformaldehyde (PFA) for later flow cytometric studies. Flow cytometry was conducted on the BD LSR II or the BD Fortessa. Analysis was done using Flowjo (Tree Star Inc.).
The listed concentrations of dexamethasone were added on day 6 and day 8. For the lipopolysaccharide (LPS) condition, LPS was added to a concentration of 50 ng/ml on day 9. […] “LPS” samples had LPS, but no dexamethasone.
For these studies, dexamethasone was added on day 6 and day 8. LPS was added to a concentration of 50 ng/ml on day 9. […] “LPS” samples had LPS, but no dexamethasone.

BMDC [3] = assay: MHC II and co-stimulatory molecule surface presentation on BMDC after LPS; format: cell-based, mouse; details: 100 nM compound, next day 50 ng/ml LPS; mean ± SD
Procedure: Day 9 BMDC were harvested from 100 mm diameter plates and seeded into 6 wells of a tissue culture plate in R10 media containing 100 nM dexamethasone or dexamethasone-[…] […] The BD LSR Fortessa was used to analyze the cells. Histograms were created using Flowjo (Tree Star Inc.) and statistical analysis was done using InStat (GraphPad Software).

JAWSII DCs = assay: GM-CSF effects on JAWSII DC recruitment, proliferation, emigration and activation in vitro; format: cell-based
Procedure: FIGS. 3A-C are graphs and FIG. 3D is a set of images showing data related to the concentration dependent effects of GM-CSF on DC proliferation, recruitment, activation and emigration in vitro. […] Migration counts measured at 12 hours. (3B) is the effects of GM-CSF concentration on the proliferation of JAWSII DCs. 0 (white bar), 50 (grey bar), and 500 ng/ml (black bar) of GM-CSF. […] Migration counts taken at 6 hours. (3D) are representative photomicrographs of TNF-α and LPS stimulated JAWSII DCs cultured in 5-50 or 500 ng/ml GM-CSF and stained for the activation markers MHCII and CCR7. Scale bar in (3D)—20 μm. Values in (3A-3C) represent mean and standard deviation (n=4); * P<0.05; ** P<0.01
High concentrations (>100 ng/ml) of GM-CSF, however, inhibited DC migration toward the LN-derived chemokine CCL19 (FIG. 3C).

[4] = system: mononuclear cells isolated from the bone marrow; assay: DC induced in vitro from bone marrow cells with GM-CSF with or without TSLP, VIP or TGF-β; format: cell-based, C57BL/6 mice; details: 7 day incubation
From the text: The surface phenotypes of CD11c+DC in the BM culture were monitored by flow cytometry and the proportionality of each phenotype is expressed as a percent (%) of the total mononuclear cells (MNC) (FIG. 5, Table 1).
The present invention provides for a material-based local application of GM-CSF with appropriate DC influencing factors that leads to tolerogenic DCs (tDCs), and subsequent enrichment of iTreg cells. Candidate biofactors include thymic stromal lymphopoietin (TSLP), vasoactive intestinal peptide (VIP), and transforming growth factor-beta (TGF-β). Screening is based on the induced DC's anti-inflammatory properties. […] Overall, these observations that the combination of GM-CSF with TSLP efficiently induces DC with an anti-inflammatory phenotype.

CD11c(+)CD86(+) DCs = assay: in vivo DC recruitment to subcutaneous GM-CSF loaded polymers; parameters: species or system C57BL/6J mice
From the text: (§1) FIGS. 4A-F are graphs and images showing data on the in vivo control of DC recruitment and programming. […] Numbers in FACS plots indicate the percentage of the cell population positive for both markers. (4D) is the percentage of total cells that were positive for the DC markers CD11c and CD86, in blank (-∘-) and GM-CSF (-•-) loaded polymers as a function of time post implantation. (4E) The total number of DCs isolated from blank (-∘-) and GM-CSF (-•-) loaded polymers as a function of time post implantation. (4F) The fractional increase in CD11c(+)CD86(+) DCs isolated from polymers at day-14 after implantation in response to doses of 1000, 3000 and 7000 ng of GM-CSF as compared to the control. Scale bar—500 μm. Values in 4A, 4D, 4E, and 4F represent mean and standard deviation (n=4 or 5); * P<0.05; ** P<0.01.
(§2) The polymer delivery vehicle presents GM-CSF in a defined spatiotemporal manner in vivo, following introduction into the tissue of interest. Exemplary vehicle quickly release approximately 60% of the bioactive GM-CSF load within the first 5 days, followed by slow and sustained release of bioactive GM-CSF over the next 10 days (FIG. 4A), to allow diffusion of the factor through the surrounding tissue and effectively recruit resident DCs. Polymers were loaded with 3 μg of GM-CSF and implanted into the dorsal subcutaneous site of C57BL/6J mice. […]

[5] = system: bone marrow derived murine dendritic cells; assay: chemokinesis of bone marrow dendritic cells toward alginate gels, time-lapse imaging; format: cell-based; details: alginate gel with GM-CSF, cells followed for 8 hours
Procedure: GM-CSF enhanced chemokinesis of bone marrow dendritic cells in vitro. Alginate gels with or without GM-CSF ([…]) were placed in a petri dish and surrounded with collagen containing bone marrow derived murine dendritic cells (FIG. 14A). The cells were followed for 8 hours using time-lapse imaging. The velocity of the cells was calculated from initial and final position values and is plotted in FIGS. 14B and C in μm/min. Chemotaxis toward the alginate is given as the positive x coordinate (positive x is directed radially inward). Each dot reflects the velocity of 1 cell, and each plot is representative of three experiments. The average migration speed of cells in the presence of GM-CSF was 3.1 μm/min compared to 1.1 μm/min in the absence of GM-CSF.

[6] = release profile of GM-CSF from polymer delivery vehicle; format: physicochemical; details: within the first 5 days
From the text: as §1, §2

[7] = system: antigen specific Th17 T cells; assay: Th17 ELISpot of splenocytes challenged with MOG; format: in vivo; details: splenocytes of treated mice with EAE induced, MOG challenge
From the text: To further explore the mechanism for tolerance induction in EAE animals treated with bolus immunoconjugate, T cell analyses (ELISpot and passive EAE assays) were completed in mice that received the immunoconjugate or control therapies (FIG. 36A-C). Splenocytes from mice treated with MOG alone or Dex-MOG with EAE induced were challenged with MOG to quantitate antigen specific elaboration of IL-17.

B3Z T cell line [8] = assay: B3Z cell: DC co-culture, CPRG assay; format: cell-based; details: antigen concentrations greater than 10 nM
Procedure: (§3) 15 hours later, the cells were fixed and stained with X-gal (Imgenix) according to the manufacturer's instructions. The cells were photographed at 10× magnification using a standard bright field microscope. A similar protocol was followed for the chlorophenol […] staining assay (Imgenix), except that after 15 hours, the cells were washed and lysed in a chlorophenol red-β-D-galactopyranoside staining buffer. After a 4 hour incubation at 37° C., the absorbance at 590 nm was obtained.
The cells were then lysed and treated with the β-galactosidase substrate, chlorophenol red-β-D-galactopyranoside (CPRG). After 4 hours of incubation, the absorbance at 590 nm was obtained. Staining was due to β a-galactosidase expression driven by elements of the IL-2 promoter.

B3Z T cell line [9] = assay: B3Z cell: DC co-culture, X-gal assay; format: cell-based
Procedure: as §3
Following a 15 hour co-culture, the cells were fixed, stained with X-gal, and imaged. The images were all obtained at 10× magnification and represent a typical distribution of cells (FIG. 29).

[10] = system: CD8+ T cells from OT-I mice; assay: OT-I: DC co-culture, CFSE T cell proliferation; format: cell-based, mouse; details: dexamethasone-SIINFEKL 1.0 μM; ovalbumin 0.2 μM
Procedure: Cytotoxic T-lymphocytes (CTLs) were purified using magnetic beads (Miltenyi Biotec) from the spleens of the T cell receptor (TCR) transgenic OT-I mice (Jackson Laboratories) following the manufacturer's protocol. OT-I mice express a transgenic T cell receptor that recognizes ovalbumin residues 257-264 in the context of H2Kb. The CTLs were cultured with a 1:1 ratio with BMDC for 3 days at 37° C. in R10 media. […] The cells were washed two times before culturing with the T cells. Dexamethasone-TRP-2 was made following the same solid phase method as described above (Peptide synthesizer: CS Bio, DIPEA, Piperidine, TFA, and NMP: Advanced ChemTech, DCM: Sigma, amino acids and resin: Peptides International, dexamethasone hemisuccinate: Steraloids). Three days later, the cells were harvested and analyzed by flow cytometry using the BD LSR II Fortessa. The plots for flow cytometry were obtained using FCS Express.
Carboxyfluorescein succinimidyl ester (CFSE) labeled CD8+ T cells from TCR transgenic OT-I mice were cultured with BMDC for 3 days. […] Three days later, the cells were analyzed by flow cytometry.

In the case of `C[C@@H]1C[C@H]2[C@@H]3CCC4=CC(=O)C=C[C@]4(C)[C@@]3(F)[C@@H](O)C[C@]2(C)[C@@]1(O)C(=O)CO` [dexamethasone], the “number of cells that migrated to CCL20 relative to control” value (Jaws II cells) is reported as “approximately 1.8 fold”, the “reduction of IL-12 elaboration from BMDC, factor” value (BMDC [1]) is reported as about 4 and the “dexamethasone concentrations with MHC II, CD80, CD86 staining reduced compared to LPS positive control” value ([2]; LPS treated) is reported as “greater than or equal to 10^−8 M”. The “dexamethasone concentrations that reduced CD11c expression” value ([2]; immature BMDC cultures) was ≥ 10^−8 M, the “dexamethasone concentration at which inhibition of CD11c+ staining begins” value ([2]; mature DC treated with LPS 50 ng/ml) was “around 10^−8 M” and the “MFI CD80” value (BMDC [3]) was 3100 ± 100^δ. For the same molecule, the “MFI CD86” value (BMDC [3]) was 2050 ± 5^β and the “MFI MHC II” value (BMDC [3]) was 540 ± 20^α.

In the case of GM-CSF, the “DC activation via TNF-α and LPS stimulation (MHCII, CCR7 expression)” value (JAWSII DCs; high concentrations of GM-CSF) is reported as “suppressed DC activation”, the “DC recruitment and proliferation” value (JAWSII DCs; in vitro) is reported as “enhanced DC recruitment and proliferation in a dose-dependent manner” and the “GM-CSF concentrations that inhibited DC migration toward CCL19” value (JAWSII DCs; transwell) is reported as over 100 ng/mL. The “CD11c+/CD86+ in total BM cells” value [4] was 14.7%, the “CD11c(+)CD86(+) DCs by FACS” value (CD11c(+)CD86(+) DCs; 3 μg GM-CSF loaded polymers) was “increased not just the total cell number, but also the percentage of infiltrating cells that were DCs” and the “total cellular infiltration at the site” value (CD11c(+)CD86(+) DCs; 3 μg GM-CSF, day-14, compared to control) was “significantly enhanced”. For the same molecule, the “average migration speed of cells” value [5] was 3.1 μm/min and the “bioactive GM-CSF load released” value [6] was “approximately 60%”.

With “MEVGWYRSPFSRVVHLYRNGK [MOG alone, myelin oligodendrocyte glycoprotein residues 35-55, reference compound]” the “IL-17 spot forming cells” value [7] was 230±10 spot forming cells per million.

In the case of SIINFEKL (Exemplary ovalbumin peptide.), the “CPRG hydrolysis versus dexamethasone-SIINFEKL groups” value (B3Z T cell line [8]) is reported as “greater CPRG hydrolysis”, the “X-gal staining of B3Z cells” value (B3Z T cell line [9]; 0.05 μM peptide) is reported as “many positive cells” and the “X-gal staining of B3Z cells” value (B3Z T cell line [9]; 1.0 μM peptide) is reported as “numerous positive cells”.

B1: ovalbumin: model antigen protein (protein, UniProt P01012 2-386, looked up)
Ovalbumin: GSIGAASMEFCFDVFKELKVHHANENIFYCPIAIMSALAMVYLGAKDSTRTQINKVVRFDKLPGFGDSIEAQCGTSVNVHSSLRDILNQITKPNDVYSFSLASRLYAEERYPILPEYLQCVKELYRGGLEPINFQTAADQARELINSWVESQTNGIIRNVLQPSSVDSQTAMVLVNAIVFKGLWEKAFKDEDTQAMPFRVTEQESKPVQMMYQIGLFRVASMASEKMKILELPFASGTMSMLVLLPDEVSGLEQLESIINFEKLTEWTSSNVMEERKIKVYLPRMKMEEKYNLTSVLMAMGITDVFSSSANLSGISSAESLKISQAVHAAHAEINEAGREVVGSAEAGVDAASVSEEFRADHPFLFCIKHIATNAVLFFGRCVSP
For B1, the “OT-I T cell proliferation, BMDC pretreated with antigen” value [10] was “initiated a stronger proliferative response”.
